Source: publication PMC11267533, “Ligandability at the Membrane Interface of GPx4 Revealed through a Reverse Micelle Fragment Screening Platform” (JACS Au, 2024)
“And” between values parts separate entries of the source, which are not always exact repeats. Equal values may be shown once. Read-outs that look alike come from different tables or passages of the source.

Assays:
[1] = DLS check for fragment aggregation in aqueous conditions; type: physicochemical; details: 15 mM, 5% DMSO
Method: Next, we sought to understand whether fragment hits were solely bound to the membrane-embedded form of GPx4 or could also bind to the aqueous form. We performed aqueous binding experiments with 3 fragment hits with varying hydrophobicities. Of the fragment hits with Kd < 1 mM, the most hydrophobic fragment (fragment 5, cLog D 2.05, 5-hydroxy-1,3-benzoxathiol-2-one) and a hydrophilic fragment with the strongest affinity (fragment 6, cLog D −2.14, (2-methoxyethyl)(4-pyridinylmethyl)amine hydrochloride) were selected, along with a compound with an amphipathic structure and only modest hydrophobicity (fragment 1, cLog D 1.05, 4-(phenylamino)-1,2-dihydropyridin-2-one). Aqueous GPx4 was combined with 400 μM of either fragments 1, 5, or 6 to directly compare to the mmRM experiments. […] Since our fragments have variable degrees of solubility and partitioning, we realized that a hydrophilic fragment like 6 may partition into the water core of the mmRM, essentially causing a concentration effect as observed previously.[32],[33] […]
Fragments 1, 5, and 6 were selected to perform proof-of-concept experiments in bulk aqueous conditions. […] However, the 100 mM Bis-Tris at pH 6.0 ensured that the pH was not altered. ^15N-HSQC experiments were collected, and CSPs were analyzed and compared to the top-shifting resonances determined from the mmRM experiments. […]

[2] = molecular target: T1, GPx4 embedded in a mmRM (membrane-bound GPx4) (Homo sapiens, UniProt P36969, U73G); test: NMR (15N-HSQC) titration of fragments against GPx4 embedded in DLPC/DPC mmRM, apparent Kd; type: binding; details: ± standard error of global Kd fit
T1 construct: Truncated U46G-GPx4 with a TEV cleavable poly-histidine tag was inserted into vector; poly-histidine tag with TEV cleavage site; host or cells: BL21 (DE3) E. coli
T1 sequence (P36969 1-170 isoform P36969-2 U46G): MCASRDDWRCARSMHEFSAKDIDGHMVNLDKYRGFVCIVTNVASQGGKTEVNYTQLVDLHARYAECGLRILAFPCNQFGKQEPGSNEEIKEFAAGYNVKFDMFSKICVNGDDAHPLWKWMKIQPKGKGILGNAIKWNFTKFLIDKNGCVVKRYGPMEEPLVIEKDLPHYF
Text: To assess whether the fragment hits are bound specifically to GPx4 and to calculate affinity, we performed NMR-based titrations. Chemical shift changes that approach saturation in a structurally localized manner target indicate specific binding.[24] This allows true positive hits to be separated from false positives and weak or nonspecific binders. Additionally, NMR-based titrations allow for the extraction of a binding affinity (Kd). To calculate apparent Kd values, CSP cutoffs were used to isolate the resonances with most shifting using 1 standard deviation above the average CSP. All 14 fragments identified from the deconvolutions were titrated up to 400 μM or 1 mM if needed. Of the 14, 9 had apparent Kds less than 1 mM and were identified as hits. Observed here is a 0.47% hit rate with best affinities in the μM range for the membrane-bound form of GPx4 and is consistent with ligandable and potentially druggable targets.[14],[57] […] The remaining five fragments, 10–14, were ruled out as weaker (>∼1 mM) or nonspecific binders. Weak or nonspecific binding could indicate that fragments partitioning to the mmRM surface and perturb the protein spectrum through a simple change in the chemical environment at the interface, among other possible nonspecific effects. […] We note that the weaker and nonspecific fragments were only eliminated due to interaction modes that are too weak or unproductive for advancement toward inhibitors; yet, binding was nevertheless detected. […] We note here that apparent Kd values reported in this study account for a total amount of fragment and protein within the mmRM sample and are not corrected for any potential concentrating effect due to localization of fragment to the mmRM surface or water phase.
NMR samples were prepared with ^15N-isotopically labeled protein with 10% v/v of d-pentane as the lock solvent (Sigma-Aldrich, St. Louis, MO). All NMR spectra were collected at 25 °C on a 700 MHz Bruker Avance III instrument. All NMR spectra were processed using NMRPipe[66] and analyzed using NMRFAM-Sparky.[67] Chemical shifts for GPx4 (BMRB 50955) were assigned from those previously published.[52] Chemical shift perturbations from ^15N-HSQC spectra were calculated using the following formula [drawing 1] where Δ^1H and Δ^15N are the changes in ^1H and ^15N chemical shifts, respectively.
The 14 fragments isolated from deconvolutions were purchased from Life Chemicals (fragments 1, 4, 6, and 11, and 12–14), Combi-Blocks (2, 3, 5, 9, and 10), or ChemBridge Hit2Lead (7 and 8). All fragment 1 and 5 analogues were also purchased from ChemBridge Hit2Lead. Fragments and analogues purchased from Life Chemicals and Hit2Lead are 90+% pure, while the fragments purchased from Combi-Blocks ranged from 95 to 97% pure. The day prior to the titration, a double-volume sample of encapsulated GPx4 was made before being split up into two separate vials. Half of the sample was added to the vial containing predried fragment corresponding to 400 μM or 1 mM. […] If they were, then the two samples were mixed to produce varying concentrations and to measure a titration curve. The top-shifting resonances were determined by calculating the average CSP at 400 μM or 1 mM and 1 and 2 standard deviations (σ) above that average. The CSP for the resonance at each fragment concentration was extracted and fit to a curve using an affinity equation that accounts for ligand depletion [drawing 2]
Any resonance producing a curve with an R^2 below 0.85 was removed, and the remaining resonances were then used to fit a global apparent Kd curve for the fragment hit. Standard error for Kd from the global fit of all of the selected residues is reported.

[3] = Table 1, GPx4 in DLPC/DPC mmRM, NMR titration up to 400 μM or 1 mM, read-out: Kd (apparent)
[4] = Table 2, analogues of fragment 5, GPx4 in mmRM, read-out: Apparent Kd

SMILES	Fragment aggregation by DLS [1]	Kd [2, 3] [µM]	Kd [2, 4]
O=c1cc(Nc2ccccc2)cc[nH]1 [Fragment 1, 4-(phenylamino)-1,2-dihydropyridin-2-one]	a small population of large aggregating species	105 ± 30	
O=c1oc2c(-c3ccc(Cl)c(Cl)c3)cc(O)cc2s1 [Analog 5.5]			~30 µM and 30 µM
O=c1oc2ccc(O)cc2s1 [Fragment 5, 5-hydroxy-1,3-benzoxathiol-2-one]	a small population of large aggregating species	220 ± 90	220 ± 90 µM
COCCNCc1ccncc1.Cl [Fragment 6, (2-methoxyethyl)(4-pyridinylmethyl)amine hydrochloride]		230 ± 60	
